Assay results from ChEMBL document CHEMBL3616391, “Fatty Acid Synthase (FASN) Inhibitors as Potential Treatment for Cancer, Obesity, and Liver Related Disorders” (ACS Med Chem Lett, 2015).

What was measured:
Fatty acid synthase = Fatty acid synthase (Homo sapiens, UniProt P49327); test: Inhibition of fatty acid synthase keto-reductase domain (unknown origin)
A2780 [1] = test: Antiproliferative activity against human A2780 cells in lipid reduced medium in presence of palmitate; format: functional, cell-based
A2780 [2] = test: Antiproliferative activity against human A2780 cells in lipid reduced medium in absence of palmitate; format: functional, cell-based
LNCaP = test: Antiproliferative activity against human LNCAP cells in lipid reduced medium; format: functional, cell-based
PC-3M = test: Antiproliferative activity against human PC3M cells expressing Luc-C6 in lipid reduced medium; format: functional, cell-based

Chain of Fatty acid synthase (P49327 whole entry, the tested form may be a part): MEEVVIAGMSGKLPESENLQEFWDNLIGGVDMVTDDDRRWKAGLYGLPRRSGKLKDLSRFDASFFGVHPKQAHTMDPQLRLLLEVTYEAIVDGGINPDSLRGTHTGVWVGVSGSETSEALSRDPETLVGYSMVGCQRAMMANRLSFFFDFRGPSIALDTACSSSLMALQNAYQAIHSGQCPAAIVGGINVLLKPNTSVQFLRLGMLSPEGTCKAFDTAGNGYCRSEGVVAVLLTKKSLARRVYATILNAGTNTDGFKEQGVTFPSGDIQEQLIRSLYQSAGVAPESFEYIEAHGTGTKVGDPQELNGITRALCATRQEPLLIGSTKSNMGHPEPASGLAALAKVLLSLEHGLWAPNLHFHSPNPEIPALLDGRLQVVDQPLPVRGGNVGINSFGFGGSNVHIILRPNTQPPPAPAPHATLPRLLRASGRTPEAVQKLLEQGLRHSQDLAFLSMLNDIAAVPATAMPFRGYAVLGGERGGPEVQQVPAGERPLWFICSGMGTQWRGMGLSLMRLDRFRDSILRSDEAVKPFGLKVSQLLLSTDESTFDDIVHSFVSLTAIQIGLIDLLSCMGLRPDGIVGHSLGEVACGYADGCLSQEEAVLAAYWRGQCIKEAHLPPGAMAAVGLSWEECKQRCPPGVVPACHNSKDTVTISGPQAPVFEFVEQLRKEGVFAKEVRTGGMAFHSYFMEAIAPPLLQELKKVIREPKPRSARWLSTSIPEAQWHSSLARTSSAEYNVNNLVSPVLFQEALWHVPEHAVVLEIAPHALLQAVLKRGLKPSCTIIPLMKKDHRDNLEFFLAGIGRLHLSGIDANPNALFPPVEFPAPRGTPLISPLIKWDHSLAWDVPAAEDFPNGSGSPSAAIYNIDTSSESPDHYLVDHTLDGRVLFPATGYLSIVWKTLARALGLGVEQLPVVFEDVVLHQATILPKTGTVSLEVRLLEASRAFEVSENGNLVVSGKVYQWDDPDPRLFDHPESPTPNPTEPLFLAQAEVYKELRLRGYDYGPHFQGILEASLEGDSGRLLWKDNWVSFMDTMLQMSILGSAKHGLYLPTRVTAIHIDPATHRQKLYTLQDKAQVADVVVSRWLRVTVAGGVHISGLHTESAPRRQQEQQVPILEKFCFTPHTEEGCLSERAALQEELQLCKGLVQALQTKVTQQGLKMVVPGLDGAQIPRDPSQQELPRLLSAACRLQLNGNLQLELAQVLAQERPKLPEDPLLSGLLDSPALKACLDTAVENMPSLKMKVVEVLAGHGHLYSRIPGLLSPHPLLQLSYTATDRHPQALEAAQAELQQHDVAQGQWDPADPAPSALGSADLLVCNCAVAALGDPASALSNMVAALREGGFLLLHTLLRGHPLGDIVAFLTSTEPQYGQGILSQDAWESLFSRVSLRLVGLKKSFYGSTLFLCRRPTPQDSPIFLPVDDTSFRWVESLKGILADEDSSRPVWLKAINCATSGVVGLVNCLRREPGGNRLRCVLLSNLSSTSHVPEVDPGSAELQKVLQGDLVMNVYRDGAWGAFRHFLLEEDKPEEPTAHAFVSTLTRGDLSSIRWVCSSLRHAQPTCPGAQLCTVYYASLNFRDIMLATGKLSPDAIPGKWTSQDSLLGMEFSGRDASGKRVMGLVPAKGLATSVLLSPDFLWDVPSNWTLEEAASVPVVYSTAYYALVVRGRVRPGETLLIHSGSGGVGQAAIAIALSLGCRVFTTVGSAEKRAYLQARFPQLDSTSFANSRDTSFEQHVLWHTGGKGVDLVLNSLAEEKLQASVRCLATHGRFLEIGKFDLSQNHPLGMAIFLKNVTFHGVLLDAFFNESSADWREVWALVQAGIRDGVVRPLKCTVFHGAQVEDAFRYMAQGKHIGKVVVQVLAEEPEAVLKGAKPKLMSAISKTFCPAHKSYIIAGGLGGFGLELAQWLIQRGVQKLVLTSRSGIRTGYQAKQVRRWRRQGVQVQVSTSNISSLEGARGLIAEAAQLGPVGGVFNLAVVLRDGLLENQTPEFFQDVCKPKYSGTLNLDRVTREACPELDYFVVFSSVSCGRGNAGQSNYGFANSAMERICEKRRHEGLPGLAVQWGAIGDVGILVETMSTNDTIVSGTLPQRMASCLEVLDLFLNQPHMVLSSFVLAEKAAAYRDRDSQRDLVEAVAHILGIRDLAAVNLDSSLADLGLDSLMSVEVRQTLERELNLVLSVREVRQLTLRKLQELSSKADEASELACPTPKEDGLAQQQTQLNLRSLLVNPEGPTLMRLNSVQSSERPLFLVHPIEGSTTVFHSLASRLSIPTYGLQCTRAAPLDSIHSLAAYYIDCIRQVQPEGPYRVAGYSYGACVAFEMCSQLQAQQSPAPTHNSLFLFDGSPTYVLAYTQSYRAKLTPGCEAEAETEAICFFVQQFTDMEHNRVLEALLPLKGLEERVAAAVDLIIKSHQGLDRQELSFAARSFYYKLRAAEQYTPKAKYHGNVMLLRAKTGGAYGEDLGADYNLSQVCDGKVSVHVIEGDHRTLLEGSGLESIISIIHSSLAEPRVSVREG

Row | IC50 (Fatty acid synthase) | IC50 (A2780 [1]) | IC50 (A2780 [2]) | IC50 (LNCaP) | IC50 (PC-3M) | SMILES
1 | 56.2 nM | > 10000 nM | 75.9 nM | 219 nM | 53.7 nM | CC1(C)N=C(c2ccc(-c3ccc4cccnc4c3)cc2)N(C[C@@H]2CCN(C(=O)C3CC3)C2)C1=O
2 | – | > 10000 nM | 5.37 nM | – | – | Cn1cc(-c2ccc(-c3ccc(C4=NC(C)(C)C(=O)N4C[C@@H]4CCN(C(=O)C5(O)CC5)C4)c(F)c3)cc2)cn1
3 | – | – | – | 724 nM | 132 nM | Cn1ncc2cc(-c3ccc(C4=NC(C)(C)C(=O)N4C[C@@H]4CCN(C(=O)C5CC5)C4)c(F)c3)ccc21
4 | – | > 10000 nM | 9330 nM | – | – | CC1(C)N=C(c2ccc(-c3nc4ccccc4[nH]3)cc2)N(C[C@@H]2CCN(C(=O)C3CC3)C2)C1=O
5 | – | 5620 nM | 468 nM | 2040 nM | – | CC1(C)N=C(c2ccc(-c3ccc4cccc(F)c4c3)cc2)N(CC2CN(C(=O)C3CC3)C2)C1=O
6 | – | > 10000 nM | 74.1 nM | – | – | CC1(C)N=C(c2ccc(-c3ccc4[nH]ccc4c3)cc2)N(C[C@@H]2CCN(C(=O)C3CC3)C2)C1=O
